From patent US10030020B2, “Spirocycle compounds and methods of making and using same” (Abide Therapeutics, Inc., priority 2016, dated 2018)

Columns and labels:
MAGL [1] = biological target: T1, MAGL (Mus musculus (Mouse), UniProt O35678); experiment: Mouse brain proteomes from inhibitor treated mice (oral gavage, sacrificed 4 h after administration, ABPP analysis); assay type: in vivo, mouse (C57Bl/6J); settings: 5 mg/kg oral gavage
How it was run: (§1)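 Values give % inhibition in brain after a 5 mg/kg oral gavage dose to wild-type C57Bl/6J mice, with vehicle e.g. PEG400/Ethanol/PBS (7/2/1). Animals were killed 4 h post-dose and brain proteome activity was read by ABPP.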

FAAH [2] = biological target: T2, FAAH (Mus musculus (Mouse), UniProt O08914); experiment: Mouse brain proteomes from inhibitor treated mice (oral gavage, sacrificed 4 h after administration, ABPP analysis), FAAH; assay type: in vivo, mouse (C57Bl/6J); settings: 5 mg/kg oral gavage
How it was run: as §1

FAAH [3] = biological target: T2, FAAH; experiment: In vitro competitive activity-based protein profiling (mouse brain membrane fraction or cell lysates), FAAH band; assay type: biochemical; settings: mouse proteome; for inhibition at 1 µM: read-out: FAAH % Inh 1 μM (mouse); for IC50: competitive ABPP
How it was run: (§2)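 Residual hydrolase activity was measured as gel band fluorescence after FP-Rh labelling (30 min, 37° C) of proteomes pretreated 30 min at 37° C with inhibitor.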

ABHD6 [4] = biological target: T3, ABHD6 (Mus musculus (Mouse), UniProt Q8R2Y0); experiment: Mouse brain proteomes from inhibitor treated mice (oral gavage, sacrificed 4 h after administration, ABPP analysis), ABHD6; assay type: in vivo, mouse (C57Bl/6J); settings: 5 mg/kg oral gavage
How it was run: as §1

ABHD6 [5] = biological target: T3, ABHD6; experiment: In vitro competitive activity-based protein profiling (mouse brain membrane fraction or cell lysates), ABHD6 band; assay type: biochemical; settings: mouse proteome; for inhibition at 1 µM: read-out: ABHD6 % Inh 1 μM (mouse); for IC50: competitive ABPP
How it was run: as §2

MAGL [6] = biological target: T1, MAGL; experiment: In vitro competitive activity-based protein profiling (mouse brain membrane fraction or cell lysates), MAGL band; assay type: biochemical; settings: mouse proteome; for inhibition at 1 µM: read-out: MAGL % Inh 1 μM (mouse); for IC50: competitive ABPP
Description: In Vitro Competitive Activity-Based Protein Profiling.
Proteomes (mouse brain membrane fraction or cell lysates) (50 μL, 1.0 mg/mL total protein concentration) were preincubated with varying concentrations of inhibitors at 37° C. After 30 min, FP—Rh (1.0 μL, 50 μM in DMSO) was added and the mixture was incubated for another 30 min at 37° C. Reactions were quenched with SDS loading buffer (50 μL-4×) and run on SDS-PAGE.

T3 sequence (Q8R2Y0 whole entry): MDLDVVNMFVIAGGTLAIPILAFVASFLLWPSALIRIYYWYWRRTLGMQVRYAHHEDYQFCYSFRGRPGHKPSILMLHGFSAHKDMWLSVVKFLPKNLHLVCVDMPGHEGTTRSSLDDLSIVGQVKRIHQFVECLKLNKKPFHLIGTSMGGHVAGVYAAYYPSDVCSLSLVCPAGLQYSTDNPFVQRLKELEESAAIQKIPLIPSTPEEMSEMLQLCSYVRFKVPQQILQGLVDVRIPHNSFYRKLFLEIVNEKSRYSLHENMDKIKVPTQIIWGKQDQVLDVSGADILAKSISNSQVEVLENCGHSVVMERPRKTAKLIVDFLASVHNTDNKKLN
T1 sequence (O35678 whole entry): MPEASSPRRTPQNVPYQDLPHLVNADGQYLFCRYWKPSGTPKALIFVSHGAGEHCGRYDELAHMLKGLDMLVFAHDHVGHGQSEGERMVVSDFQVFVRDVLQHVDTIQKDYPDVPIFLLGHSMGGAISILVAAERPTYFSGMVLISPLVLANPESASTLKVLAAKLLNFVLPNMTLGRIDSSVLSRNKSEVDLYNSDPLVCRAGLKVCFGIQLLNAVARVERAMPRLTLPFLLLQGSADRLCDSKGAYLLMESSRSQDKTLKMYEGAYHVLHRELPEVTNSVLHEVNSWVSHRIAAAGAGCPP
T2 sequence (O08914 whole entry): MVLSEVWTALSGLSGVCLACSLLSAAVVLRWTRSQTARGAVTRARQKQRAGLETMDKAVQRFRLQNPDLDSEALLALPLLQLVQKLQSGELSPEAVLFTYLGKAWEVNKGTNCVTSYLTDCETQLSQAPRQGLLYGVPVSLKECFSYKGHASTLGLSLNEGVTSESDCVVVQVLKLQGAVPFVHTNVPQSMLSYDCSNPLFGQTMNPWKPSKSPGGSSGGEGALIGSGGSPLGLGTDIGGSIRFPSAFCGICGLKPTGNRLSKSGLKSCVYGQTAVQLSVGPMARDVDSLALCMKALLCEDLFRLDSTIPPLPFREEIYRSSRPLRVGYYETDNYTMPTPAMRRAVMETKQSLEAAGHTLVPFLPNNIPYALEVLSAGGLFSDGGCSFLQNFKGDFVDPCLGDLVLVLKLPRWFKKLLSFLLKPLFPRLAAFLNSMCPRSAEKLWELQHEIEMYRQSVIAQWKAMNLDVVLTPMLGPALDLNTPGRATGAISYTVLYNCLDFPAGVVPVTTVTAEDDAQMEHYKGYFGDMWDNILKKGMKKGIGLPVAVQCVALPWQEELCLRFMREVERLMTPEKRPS

| Structure (SMILES) | MAGL % Inh 5 mg/kg (mouse) (MAGL [1]) | FAAH % Inh 5 mg/kg (mouse) (FAAH [2]) | inhibition at 1 µM (FAAH [3]) [%] | IC50 (FAAH [3]) [nM] | ABHD6 % Inh 5 mg/kg (mouse) (ABHD6 [4]) | inhibition at 1 µM (ABHD6 [5]) [%] | IC50 (ABHD6 [5]) [nM] | inhibition at 1 µM (MAGL [6]) [%] | IC50 (MAGL [6]) [nM] |
| --- | --- | --- | --- | --- | --- | --- | --- | --- | --- |
| CC1(C)CC2(CCN(C(=O)OC(C(F)(F)F)C(F)(F)F)CC2)CN1Cc1ccc(Cl)cc1 [Example 48, 1,1,1,3,3,3-Hexafluoropropan-2-yl 2-(4-chlorobenzyl)-3,3-dimethyl-2,8-diazaspiro[4.5]decane-8-carboxylate] | ### (### is ≥75%) | # (# is <25%) | < 25 | > 1000 | ## (## is equal to or greater than 25% but less than 75%) | ≥ 75 | 100 to 1000 | > 75 | < 100 |
| CC1(C)CC2(CCN(C(=O)OC(C(F)(F)F)C(F)(F)F)CC2)CN1Cc1ccc(Cl)cc1N1CCOCC1 [Example 50, 1,1,1,3,3,3-Hexafluoropropan-2-yl 2-(4-chloro-2-morpholinobenzyl)-3,3-dimethyl-2,8-diazaspiro[4.5]decane-8-carboxylate] | ## (## is equal to or greater than 25% but less than 75%) | # (# is <25%) | < 25 | > 1000 | # (# is <25%) | 25 to 75 | > 1000 | > 75 | < 100 |
| CC1(C)CC2(CCN(C(=O)OC(C(F)(F)F)C(F)(F)F)CC2)CN1Cc1ccc(C(F)(F)F)cc1N1CCOCC1 [Example 51, 1,1,1,3,3,3-Hexafluoropropan-2-yl 3,3-dimethyl-2-(2-morpholino-4-(trifluoromethyl)benzyl)-2,8-diazaspiro[4.5]decane-8-carboxylate] | ## (## is equal to or greater than 25% but less than 75%) | # (# is <25%) | < 25 | > 1000 | # (# is <25%) | < 25 | > 1000 | > 75 | < 100 |
| CC1(C)CC2(CCN(C(=O)OC(C(F)(F)F)C(F)(F)F)CC2)CN1Cc1ccc(C(F)(F)F)cc1N1CCC2(CCOCC2)C1 [Example 52, 1,1,1,3,3,3-Hexafluoropropan-2-yl 2-(2-(8-oxa-2-azaspiro[4.5]decan-2-yl)-4-(trifluoromethyl)benzyl)-3,3-dimethyl-2,8-diazaspiro[4.5]decane-8-carboxylate] | # (# is <25%) | # (# is <25%) | < 25 | > 1000 | # (# is <25%) | < 25 | > 1000 | > 75 | < 100 |
| CC1(C)CC2(CCN(C(=O)OC(C(F)(F)F)C(F)(F)F)CC2)CN1Cc1cccc(Cl)c1N1CCOCC1 [Example 54, 1,1,1,3,3,3-Hexafluoropropan-2-yl 2-(3-chloro-2-morpholinobenzyl)-3,3-dimethyl-2,8-diazaspiro[4.5]decane-8-carboxylate] | ## (## is equal to or greater than 25% but less than 75%) | # (# is <25%) | < 25 | > 1000 | # (# is <25%) | < 25 | > 1000 | > 75 | < 100 |
| O=C(OC(C(F)(F)F)C(F)(F)F)N1CCC2(CCCN2Cc2ccccc2Cl)CC1 [Example 60, 1,1,1,3,3,3-Hexafluoropropan-2-yl 1-(2-chlorobenzyl)-1,8-diazaspiro[4.5]decane-8-carboxylate] | ### (### is ≥75%) | ## (## is equal to or greater than 25% but less than 75%) | < 25 | > 1000 | # (# is <25%) | < 25 | > 1000 | > 75 | < 100 |
| O=C(OC(C(F)(F)F)C(F)(F)F)N1CCC2(CCCN2Cc2cccc(Cl)c2)CC1 [Example 61, 1,1,1,3,3,3-Hexafluoropropan-2-yl 1-(3-chlorobenzyl)-1,8-diazaspiro[4.5]decane-8-carboxylate] | ### (### is ≥75%) | ### (### is ≥75%) | 25 to 75 | > 1000 | # (# is <25%) | 25 to 75 | > 1000 | > 75 | < 100 |
| O=C(OC(C(F)(F)F)C(F)(F)F)N1CCC2(CCCN2Cc2ccc(Cl)cc2)CC1 [Example 62, 1,1,1,3,3,3-Hexafluoropropan-2-yl 1-(4-chlorobenzyl)-1,8-diazaspiro[4.5]decane-8-carboxylate] | ### (### is ≥75%) | ## (## is equal to or greater than 25% but less than 75%) | < 25 | > 1000 | ## (## is equal to or greater than 25% but less than 75%) | < 25 | > 1000 | > 75 | < 100 |
| O=C(OC(C(F)(F)F)C(F)(F)F)N1CCC2(CCN(Cc3cccc(Cl)c3N3CCC(F)(F)CC3)C2)CC1 [Example 64, 1,1,1,3,3,3-Hexafluoropropan-2-yl 2-(3-chloro-2-(4,4-difluoropiperidin-1-yl)benzyl)-2,8-diazaspiro[4.5]decane-8-carboxylate] | ## (## is equal to or greater than 25% but less than 75%) | # (# is <25%) | < 25 | > 1000 | # (# is <25%) | < 25 | > 1000 | > 75 | < 100 |
| O=C(OC(C(F)(F)F)C(F)(F)F)N1CCC2(CCN(Cc3cccc(Cl)c3N3CCC(F)CC3)C2)CC1 [Example 65, 1,1,1,3,3,3-Hexafluoropropan-2-yl 2-(3-chloro-2-(4-fluoropiperidin-1-yl)benzyl)-2,8-diazaspiro[4.5]decane-8-carboxylate] | ## (## is equal to or greater than 25% but less than 75%) | # (# is <25%) | < 25 | > 1000 | ## (## is equal to or greater than 25% but less than 75%) | 25 to 75 | > 1000 | > 75 | < 100 |
| O=C(OC(C(F)(F)F)C(F)(F)F)N1CCC2(CCCN2Cc2ccc(C(F)(F)F)cc2N2CCCC2)CC1 [Example 66, 1,1,1,3,3,3-Hexafluoropropan-2-yl 1-(2-(pyrrolidin-1-yl)-4-(trifluoromethyl)benzyl)-1,8-diazaspiro[4.5]decane-8-carboxylate] | ## (## is equal to or greater than 25% but less than 75%) | # (# is <25%) | < 25 | > 1000 | # (# is <25%) | < 25 | > 1000 | > 75 | < 100 |
| O=C(OC(C(F)(F)F)C(F)(F)F)N1CCC2(CCCN2Cc2ccc(C(F)(F)F)cc2N2CCOCC2)CC1 [Example 67, 1,1,1,3,3,3-Hexafluoropropan-2-yl 1-(2-morpholino-4-(trifluoromethyl)benzyl)-1,8-diazaspiro[4.5]decane-8-carboxylate] | ### (### is ≥75%) | # (# is <25%) | < 25 | > 1000 | # (# is <25%) | < 25 | > 1000 | > 75 | < 100 |
| CCN1CCCc2cccc(CN3CCC4(CCN(C(=O)OC(C(F)(F)F)C(F)(F)F)CC4)C3)c21 [Example 71, 1,1,1,3,3,3-Hexafluoropropan-2-yl 2-((1-ethyl-1,2,3,4-tetrahydroquinolin-8-yl)methyl)-2,8-diazaspiro[4.5]decane-8-carboxylate] | ### (### is ≥75%) | # (# is <25%) | < 25 | > 1000 | ## (## is equal to or greater than 25% but less than 75%) | 25 to 75 | > 1000 | > 75 | < 100 |
| O=C(OC(C(F)(F)F)C(F)(F)F)N1CCC2(CCN(Cc3ccc(C(F)(F)F)cc3N3CCCC3)C2)CC1 [Example 72, 1,1,1,3,3,3-Hexafluoropropan-2-yl 2-(2-(pyrrolidin-1-yl)-4-(trifluoromethyl)benzyl)-2,8-diazaspiro[4.5]decane-8-carboxylate] | ## (## is equal to or greater than 25% but less than 75%) | # (# is <25%) | < 25 | > 1000 | # (# is <25%) | < 25 | > 1000 | > 75 | < 100 |
